Experimental data from article PMC10825183 (Nature Communications, 2024).
Where “and” joins values, the source holds several entries; their conditions need not be identical. Equal entries are not always repeated. Where two headings read alike, the source gives them in different places.

Key:
[1] = system: full-length HCN2 with a C-linker and CNBD from HCN4; details: ref Xu et al, JBC, 2010; cited from earlier work
[2] = target: isolated C-linker and CNBD; details: ref Chow et al (2012), cited from earlier work
[3] = target: hHCN2 CNBD R662A (Homo sapiens, UniProt Q9UL51, R662A); test: biochemical
[4] = target: rbHCN4 ΔC-term (1-758) (Oryctolagus cuniculus, UniProt Q9TV66); details: mean ± SEM
[5] = system: native If current in sinoatrial node myocytes; details: read-out: affinity value for cAMP; ref DiFrancesco and Tortora, Nature, 1991; cited from earlier work
[6] = target: T1, hHCN2 CNBD D698A (Homo sapiens, UniProt Q9UL51, D698A); details: cAMP titrant
[7] = target: T1, hHCN2 CNBD D698A; test: biochemical
[8] = target: T2, human HCN2 CNBD ΔDE’ (Homo sapiens, UniProt Q9UL51); test: Isothermal titration calorimetry (ITC), CNBD ΔDE’
T2 sequence (Q9UL51 521-672): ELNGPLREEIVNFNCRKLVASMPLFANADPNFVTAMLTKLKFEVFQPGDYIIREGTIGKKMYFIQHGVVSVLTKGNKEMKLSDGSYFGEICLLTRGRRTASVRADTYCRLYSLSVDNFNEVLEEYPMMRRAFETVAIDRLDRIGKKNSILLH

[9] = target: rbHCN4 D750A (Oryctolagus cuniculus, UniProt Q9TV66, D750A)
[10] = target: T3, human HCN2 CNBD ΔC-term (Homo sapiens, UniProt Q9UL51); test: Isothermal titration calorimetry (ITC), CNBD ΔC-term; details: mean ± SEM, n = 3
T3 sequence (Q9UL51 521-706): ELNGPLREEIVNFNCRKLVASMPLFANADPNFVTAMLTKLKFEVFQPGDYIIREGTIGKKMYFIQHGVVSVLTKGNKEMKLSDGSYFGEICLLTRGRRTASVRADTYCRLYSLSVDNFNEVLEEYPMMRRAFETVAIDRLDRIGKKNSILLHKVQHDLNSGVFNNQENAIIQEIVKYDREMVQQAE

[11] = target: T4, human HCN2 CNBD ΔDE (Homo sapiens, UniProt Q9UL51); test: Isothermal titration calorimetry (ITC), CNBD ΔDE; details: cAMP titrated into 20 µM CNBD, 25 °C, mean ± SEM, n = 3
T4 sequence (Q9UL51 521-667): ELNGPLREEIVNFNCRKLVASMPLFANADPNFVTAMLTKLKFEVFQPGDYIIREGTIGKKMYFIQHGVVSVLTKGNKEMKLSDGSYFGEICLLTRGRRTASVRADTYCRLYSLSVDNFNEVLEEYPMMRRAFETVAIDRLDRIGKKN

[12] = target: rbHCN4 ΔDE (1-718) (Oryctolagus cuniculus, UniProt Q9TV66)
[13] = KD of individual experiments (source data Fig. 4e), cAMP titrant, unit inferred
[14] = KD, cAMP titrated into 20 µM CNBD, 25 °C, mean ± SEM, n = 3
[15] = 5 µM cAMP in pipette, mean ± SEM
[16] = Hill fit of shift in V1/2 vs cAMP concentration

rbHCN4 D750A, sequence (Q9TV66 whole entry D750A): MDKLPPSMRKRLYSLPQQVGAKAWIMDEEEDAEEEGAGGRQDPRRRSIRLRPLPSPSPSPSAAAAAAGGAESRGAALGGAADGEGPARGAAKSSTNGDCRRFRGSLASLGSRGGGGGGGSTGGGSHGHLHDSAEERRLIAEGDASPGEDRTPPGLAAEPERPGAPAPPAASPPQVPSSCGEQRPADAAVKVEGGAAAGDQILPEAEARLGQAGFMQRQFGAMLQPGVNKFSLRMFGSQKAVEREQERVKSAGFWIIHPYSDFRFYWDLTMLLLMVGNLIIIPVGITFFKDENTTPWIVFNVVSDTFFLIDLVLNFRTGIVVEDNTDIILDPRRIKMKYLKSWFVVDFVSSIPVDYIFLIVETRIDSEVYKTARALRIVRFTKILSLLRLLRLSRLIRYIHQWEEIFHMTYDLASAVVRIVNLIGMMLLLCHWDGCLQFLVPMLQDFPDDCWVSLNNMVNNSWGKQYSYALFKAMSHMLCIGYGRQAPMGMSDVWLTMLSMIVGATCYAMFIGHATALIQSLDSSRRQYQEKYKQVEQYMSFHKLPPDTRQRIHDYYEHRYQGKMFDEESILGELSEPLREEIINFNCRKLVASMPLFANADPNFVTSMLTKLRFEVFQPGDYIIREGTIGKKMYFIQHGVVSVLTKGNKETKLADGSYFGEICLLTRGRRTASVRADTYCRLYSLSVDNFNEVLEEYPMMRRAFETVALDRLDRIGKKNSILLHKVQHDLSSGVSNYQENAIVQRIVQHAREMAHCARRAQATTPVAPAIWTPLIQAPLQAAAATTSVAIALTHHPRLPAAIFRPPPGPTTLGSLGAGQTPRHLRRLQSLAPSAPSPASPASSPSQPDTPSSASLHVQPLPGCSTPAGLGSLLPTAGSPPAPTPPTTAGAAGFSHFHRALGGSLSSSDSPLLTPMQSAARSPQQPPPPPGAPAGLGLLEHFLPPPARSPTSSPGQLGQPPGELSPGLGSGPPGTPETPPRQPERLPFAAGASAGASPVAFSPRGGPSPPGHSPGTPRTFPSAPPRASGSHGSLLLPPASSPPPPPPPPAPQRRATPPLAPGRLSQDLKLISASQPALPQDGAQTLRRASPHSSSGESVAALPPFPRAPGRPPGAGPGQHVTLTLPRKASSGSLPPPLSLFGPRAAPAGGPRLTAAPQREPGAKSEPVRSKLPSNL
hHCN2 CNBD R662A, sequence (Q9UL51 521-706 R662A): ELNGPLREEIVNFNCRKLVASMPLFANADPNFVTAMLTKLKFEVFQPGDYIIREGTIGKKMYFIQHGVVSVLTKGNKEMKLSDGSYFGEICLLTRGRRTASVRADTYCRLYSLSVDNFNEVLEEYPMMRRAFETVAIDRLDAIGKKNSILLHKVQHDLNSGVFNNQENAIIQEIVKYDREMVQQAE
T1 sequence (Q9UL51 521-706 D698A): as the sequence (Q9UL51 521-706 R662A) above, with A142R, D178A counted along it
rbHCN4 ΔC-term (1-758), sequence (Q9TV66 1-758, stated change not applied): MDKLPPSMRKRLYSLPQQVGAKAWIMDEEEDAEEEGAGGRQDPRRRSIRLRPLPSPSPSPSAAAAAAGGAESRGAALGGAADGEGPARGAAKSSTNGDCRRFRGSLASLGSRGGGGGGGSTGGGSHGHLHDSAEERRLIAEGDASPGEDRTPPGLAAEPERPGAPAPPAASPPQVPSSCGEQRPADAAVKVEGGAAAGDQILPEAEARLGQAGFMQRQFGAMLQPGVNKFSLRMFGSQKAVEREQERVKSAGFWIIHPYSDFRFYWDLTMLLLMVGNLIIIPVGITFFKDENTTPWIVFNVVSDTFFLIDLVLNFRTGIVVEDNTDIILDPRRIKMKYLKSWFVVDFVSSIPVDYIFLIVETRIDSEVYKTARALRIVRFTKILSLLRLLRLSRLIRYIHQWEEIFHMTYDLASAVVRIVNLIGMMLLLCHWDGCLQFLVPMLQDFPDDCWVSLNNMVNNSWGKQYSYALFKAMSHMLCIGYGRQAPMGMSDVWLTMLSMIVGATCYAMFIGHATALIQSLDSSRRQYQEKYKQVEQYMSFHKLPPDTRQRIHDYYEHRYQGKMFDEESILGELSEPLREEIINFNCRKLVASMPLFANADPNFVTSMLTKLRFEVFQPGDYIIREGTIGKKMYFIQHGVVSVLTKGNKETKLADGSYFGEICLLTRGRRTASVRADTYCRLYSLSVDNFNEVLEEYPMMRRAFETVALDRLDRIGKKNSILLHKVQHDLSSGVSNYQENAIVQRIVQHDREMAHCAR
rbHCN4 ΔDE (1-718), sequence (Q9TV66 1-718, stated change not applied): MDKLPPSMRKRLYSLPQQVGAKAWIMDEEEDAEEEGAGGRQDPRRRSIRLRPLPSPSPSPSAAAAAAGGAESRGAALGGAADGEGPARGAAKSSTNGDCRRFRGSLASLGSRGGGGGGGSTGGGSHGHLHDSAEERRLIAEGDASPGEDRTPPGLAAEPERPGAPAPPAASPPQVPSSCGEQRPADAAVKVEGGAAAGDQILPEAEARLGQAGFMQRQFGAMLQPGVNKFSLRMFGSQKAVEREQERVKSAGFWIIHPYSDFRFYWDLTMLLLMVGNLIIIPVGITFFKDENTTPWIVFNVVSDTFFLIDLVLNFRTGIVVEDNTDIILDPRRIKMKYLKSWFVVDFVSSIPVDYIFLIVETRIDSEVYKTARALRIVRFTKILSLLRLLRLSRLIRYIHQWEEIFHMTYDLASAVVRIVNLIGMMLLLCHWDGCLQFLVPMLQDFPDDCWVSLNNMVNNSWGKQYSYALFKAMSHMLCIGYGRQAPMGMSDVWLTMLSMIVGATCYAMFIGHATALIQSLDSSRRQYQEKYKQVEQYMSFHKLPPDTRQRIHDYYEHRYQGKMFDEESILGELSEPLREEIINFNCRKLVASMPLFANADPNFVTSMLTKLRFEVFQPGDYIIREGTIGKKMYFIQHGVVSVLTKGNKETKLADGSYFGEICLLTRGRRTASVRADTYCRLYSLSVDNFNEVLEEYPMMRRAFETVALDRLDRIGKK

Nc1ncnc2c1ncn2[C@@H]1O[C@@H]2COP(=O)(O)O[C@H]2[C@H]1O [cAMP, Adenosine 3′,5′-cyclic monophosphate]
EC50 [1]: 240 nM
Kd ([2]; read-out: binding affinity, higher affinity, protein at ~100uM or greater, predominantly tetramers): 120 nM
Kd ([2]; read-out: binding affinity, lower affinity, protein at ~100uM or greater, predominantly tetramers): 1500 nM
Kd ([2]; read-out: binding affinity, single lower affinity, first two helices of the C-linker removed, monomeric protein): ~1800 nM
Kd ([2]; read-out: binding affinity, single lower affinity, lower protein concentrations, tetramers less frequent): ~1500 nM
Kd [3, 13]: 1080 nM and 980 nM and 1100 nM
Kd [3, 14]: 1000 ± 30 nM
V1/2 with cAMP ([4]; 1 µM cAMP in pipette): -88.9 ± 1.5 mV
k (inverse slope factor) with cAMP ([4]; 1 µM cAMP): 9.6 ± 0.5 mV
EC50 [5]: 200 nM
stoichiometry (N) ([6]; mean ± SEM, n = 3): 0.8 ± 0.1
N, representative sample (Fig. 4d) ([6]; single ITC experiment): 0.7
Kd [7, 13]: 1700 nM and 1600 nM and 1300 nM
Kd [7, 14]: 1500 ± 100 nM
Kd ([7]; KD, representative sample (Fig. 4d), cAMP titrant, single ITC experiment): 1000 nM
Kd ([8]; cAMP titrated into 20 µM CNBD, 25 °C, mean ± SEM, n = 3): 1200 ± 30 nM
Kd ([8]; representative sample (Fig. 2d), cAMP titrant, single ITC experiment): 1200 nM
stoichiometry (N) ([8]; cAMP titrant, mean ± SEM, n = 3): 0.8 ± 0.1
V1/2 with cAMP [9, 15]: -96 ±1.7 mV
k (inverse slope factor) with cAMP ([9]; 5 µM cAMP, mean ± SEM): 9 ± 0.5 mV
Hill coefficient (nH) [9, 16]: 0.8
Kd ([10]; KD, cAMP titrated into 20 µM CNBD, 25 °C): 300 ± 10 nM
stoichiometry (N) ([10]; cAMP titrant): 0.4 ± 0.1
Kd [11]: 9500 ± 700 nM
V1/2 with cAMP [12, 15]: -102.4± 0.6 mV
k (inverse slope factor) with cAMP ([12]; 5 µM cAMP, mean ± SEM): 7.6 ± 0.3 mV
Hill coefficient (nH) [12, 16]: 1
